Measurements from paper PMC3589414, “Regulation of ASPP2 Interaction with p53 Core Domain by an Intramolecular Autoinhibitory Mechanism” (PLoS ONE, 2013).
Values joined by “and” are separate entries in the source; they are usually repeats but may differ in a detail not shown here. Equal entries are not always repeated. “Also recorded” adds a separate entry of the source. Where a SMILES comes first, the peptide text is derived from it. Where no end group is shown, it is not given here. The star is where a group is joined. 5FAM = O=C1OC2(c3ccc(O)cc3Oc3cc(O)ccc32)c2ccc(C(=O)*)cc21

Tests used:
[1] = molecular target: T1, complex between ASPP2 Ank-SH3 and Fl-ASPP2 722–737 (Homo sapiens, UniProt Q13625); details: previously shown; cited from earlier work
T1 construct: pRSET HLT ASPP2 893–1128 vector; HLT (vector-encoded tag); made in house
T1 sequence (Q13625 893-1128): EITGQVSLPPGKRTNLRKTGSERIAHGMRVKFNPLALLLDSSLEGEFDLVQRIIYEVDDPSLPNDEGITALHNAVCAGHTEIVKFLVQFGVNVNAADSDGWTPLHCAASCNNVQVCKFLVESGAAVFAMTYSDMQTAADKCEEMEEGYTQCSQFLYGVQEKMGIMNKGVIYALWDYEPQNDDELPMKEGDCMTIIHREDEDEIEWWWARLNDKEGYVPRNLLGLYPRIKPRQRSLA
Excerpt: Fl-NFκB 303–332 was previously shown to bind ASPP2 Ank-SH3 and compete with the Pro peptide ASPP2 722–737 [13]. We thus assumed that NFκB 303–332 also binds the SH3 domain of ASPP2, similar to p53CD and the ASPP2 Pro peptide. […] The Bcl-2 BH4 peptide (residues 7–24) binds the RT loop of ASPP2 in different residues than the p53 loop3 [14], [22]. […] However, p53CD displaced Fl-NFκB 303–332 from its complex with ASPP2 Ank-SH3. ...

[2] = molecular target: Bcl-2 peptide 7-24 (Homo sapiens) (UniProt P10415); experiment: fluorescence anisotropy; details: cited from earlier work
[3] = test system: complex between p53CD and Fl-ASPP2 1089–1097; experiment: Fluorescence anisotropy competition: competitor added to complex of Fl-ASPP2 1089–1097 and p53CD; assay type: binding; details: 200 µl of 130 µM competitor added to 87 nM Fl-ASPP2 1089–1097 and 6.5 µM p53CD, 50 mM Hepes pH 7.0, IS = 20 mM, 10 mM βME, 10°C
Protocol: (§1) In the competition experiments, the conditions were as follows: 100–200 µl of competitor peptide or protein were added to a 1200 µl mixture of 83 nM Fl-ASPP2 722–737 and 8.3 µM ASPP2 Ank-SH3 at 20 mM Hepes pH 7.0, IS = 50 mM, 5 mM βME; 200 µl of 130 µM of competitor peptide were added to a 1150-µl mixture of 87 nM Fl peptide ASPP2 1089–1097 and 6.5 µM p53CD at 50 mM Hepes pH 7.0, IS = 20 mM, 10 mM βME; 200 µl of 130 µM of Bcl-2 103–120 or Bcl-2 7–24 were added to a 1100 µl mixture of 87 nM Fl-NFκB 303–332 and 2.25 µM ASPP2 Ank-SH3 or to 1150 µl mixture of 87 nM Fl-ASPP2 722–737 and 4.5 µM ASPP2 Ank-SH3 at 20 mM Hepes pH 7.0, IS = 50 mM, 5 mM βME. The K d of the competitor was calculated as described.

[4] = molecular target: T2, ASPP2 n-src peptide (residues 1089–1097) (Homo sapiens, UniProt Q13625); experiment: Fluorescence anisotropy titration into Fl-ASPP2 n-src peptide; assay type: binding; details: 20 mM Hepes pH 7.0, IS 50 mM, 5 mM βME, data not shown
T2 construct: fluorescein-labeled (Fl) ASPP2 n-src peptide (residues 1089–1097); made in house; host or cells: chemical peptide synthesis

[5] = test system: p53CD mutant I195T; details: to levels similar to wild-type; cited from earlier work
Excerpt: (§2) The TP53 gene encoding p53 is frequently mutated in human cancers and most of these reported mutations are in the DNA-binding core domain of the protein (p53CD), [25]. Some of these mutations lower the thermodynamic stability of p53, resulting in its unfolding and inactivation.

[6] = test system: p53CD; details: 37°C, concentration-dependent; cited from earlier work
Excerpt: as §2

[7] = test system: p53 R249S mutant; details: back towards wild-type-like structure; cited from earlier work
Excerpt: as §2

[8] = test system: colorectal carcinoma HCT116 cells; details: cited from earlier work
Excerpt: (§3) It is possible that the peptide inhibits the intramolecular interaction in ASPP2 and thus activates the p53-ASPP2 interaction that ...

[9] = test system: R175H and R273H mutant p53; details: cited from earlier work
Excerpt: as §3

[10] = test system: HCT116 p53−/− cells; details: cited from earlier work
Excerpt: as §3

[11] = molecular target: T3, complex between ASPP2 Ank-SH3 and Fl-NFκB 303–332 (Homo sapiens, UniProt Q13625); experiment: Fluorescence anisotropy competition: competitor added to complex of Fl-NFκB 303–332 and ASPP2 Ank-SH3; assay type: binding; details: Bcl-2 peptides: 200 µl of 130 µM added to 87 nM Fl-NFκB 303–332 and 2.25 µM ASPP2 Ank-SH3, 20 mM Hepes pH 7.0, IS = 50 mM; p53CD: IS = 150 mM; 10°C
T3 construct: pRSET HLT ASPP2 893–1128 vector; HLT (vector-encoded tag); made in house
T3 sequence (Q13625 893-1128): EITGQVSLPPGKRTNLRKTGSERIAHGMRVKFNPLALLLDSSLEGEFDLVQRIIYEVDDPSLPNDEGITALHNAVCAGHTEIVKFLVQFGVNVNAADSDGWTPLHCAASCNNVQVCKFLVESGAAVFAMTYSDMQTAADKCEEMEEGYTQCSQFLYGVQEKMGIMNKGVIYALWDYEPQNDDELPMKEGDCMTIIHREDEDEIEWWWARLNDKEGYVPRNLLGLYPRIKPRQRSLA
Protocol: as §1

[12] = molecular target: T1, complex between ASPP2 Ank-SH3 and Fl-ASPP2 722–737; experiment: Fluorescence anisotropy competition: competitor added to complex of Fl-ASPP2 722–737 and ASPP2 Ank-SH3; assay type: binding; details: 83–87 nM Fl-ASPP2 722–737, 8.3 µM (p53CD) or 4.5 µM (Bcl-2 peptides) ASPP2 Ank-SH3, 20 mM Hepes pH 7.0, IS = 50 mM, 5 mM βME, 10°C
Protocol: as §1

[13] = test system: complex between Fl-ASPP2 1089–1097 and ASPP2 722–737; experiment: Fluorescence anisotropy competition: p53CD added to complex of Fl-ASPP2 1089–1097 and ASPP2 722–737; assay type: binding; details: Figure 2A
Protocol: A major p53-interacting site in ASPP2 SH3 is situated in the n-src loop between residues 1089–1097 [14], [27] (Figure 1A, B). […] The ASPP2 Pro peptide (residues 722–737) was titrated into the fluorescein-labeled (Fl) ASPP2 n-src peptide (residues 1089–1097). […] In the opposite experiment p53CD was added to a pre-formed complex between the ASPP2 Pro peptide and the Fl-ASPP2 n-src peptide (Figure 2A).

[14] = molecular target: T4, ASPP2 Ank-SH3 (ASPP2 893–1128) (UniProt Q13625 893-1128); experiment: fluorescence polarisation; fluorescence anisotropy; ASPP2 Ank-SH3 titrated into Fl-NFκB 303–332; 10°C; 20 mM Hepes pH 7.0, 5 mM βME; ionic strength 150 mM (told for the competition done on this complex); details: both partners purified
T4 construct: ASPP2, four ankyrin repeats and SH3 domain, residues 893-1128
T4 sequence (looked up): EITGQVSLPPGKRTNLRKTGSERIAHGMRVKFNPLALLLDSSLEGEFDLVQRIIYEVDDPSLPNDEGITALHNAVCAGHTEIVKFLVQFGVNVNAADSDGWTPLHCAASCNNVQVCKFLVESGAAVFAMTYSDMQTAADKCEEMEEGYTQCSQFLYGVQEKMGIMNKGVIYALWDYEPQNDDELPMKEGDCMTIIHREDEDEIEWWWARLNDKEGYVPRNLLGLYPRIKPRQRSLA

[15] = molecular target: T4, ASPP2 Ank-SH3 (ASPP2 893–1128); experiment: fluorescence polarisation; fluorescence anisotropy; ASPP2 Ank-SH3 titrated into 100 nM fluorescein-labelled peptide; 10°C; 20 mM Hepes pH 7.0, 5 mM βME; ionic strength 50 mM (told for the competitions done on these complexes); 1:1 binding model; details: both partners purified
[16] = molecular target: T5, Fl-ASPP2 1089–1097 (fluorescein-labelled ASPP2 n-src loop peptide); experiment: fluorescence polarisation; fluorescence anisotropy; p53CD or ASPP2 722–737 titrated into 100 nM Fl-ASPP2 1089–1097 in the cuvette; 10°C; 50 mM Hepes pH 7.0, 10 mM NaCl, 10 mM βME; 1:1 binding model; details: both partners purified
T5 construct: ASPP2 n-src loop of the SH3 domain, residues 1089-1097; also called Fl-ASPP2 n-src peptide; Fl-n-src peptide; source: synthetic peptide
T5 peptide: fluorescein-REDEDEIEW

## CC[C@H](C)[C@H](NC(=O)[C@H](CCCNC(=N)N)NC(=O)[C@H](CCCNC(=N)N)NC(=O)[C@@H]1CCCN1C(=O)[C@@H]1CCCN1C(=O)[C@@H]1CCCN1C(=O)[C@H](CCCNC(=N)N)NC(=O)[C@@H]1CCCN1C(=O)[C@H](CC(=O)O)NC(=O)[C@@H](NC(=O)[C@@H]1CCCN1C(=O)CNC(=O)[C@H](CO)NC(=O)[C@H](Cc1ccccc1)NC(=O)[C@@H]1CCCN1C(=O)[C@H](CO)NC(=O)[C@H](CCCCN)NC(=O)[C@H](CCCCN)NC(=O)[C@H](CCSC)NC(=O)[C@@H](NC(=O)[C@H](CO)NC(=O)[C@H](CCCCN)NC(=O)[C@H](Cc1ccccc1)NC(=O)[C@@H](NC(=O)[C@H](CCC(=O)O)NC(=O)[C@H](Cc1ccc(O)cc1)NC(=O)[C@@H](NC(=O)[C@H](CCCNC(=N)N)NC(=O)[C@H](CCCCN)NC(=O)c1ccc2c(c1)C(=O)OC21c2ccc(O)cc2Oc2cc(O)ccc21)[C@@H](C)O)[C@@H](C)O)[C@@H](C)CC)[C@@H](C)O)C(=O)N[C@@H](C)C(N)=O [Fl-NFκB 303–332] (5FAM-KRTYETFKSIMKKSPFSGPTDPRPPPRRIA-NH2)
[1]
  Competition of NFκB 303–332 with Pro peptide ASPP2 722–737 for ASPP2 Ank-SH3: compete

## ASPP2 Ank-SH3 Ank-SH3 (from UniProt Q13625)
[2]
  Kd: 4700 nM

## KRTYETFKSIMKKSPFSGPTDPRPPPRRIA [NFκB 303–332]
[1]
  Competition of NFκB 303–332 with Pro peptide ASPP2 722–737 for ASPP2 Ank-SH3: competed
[3]
  Displacement of p53CD from its complex with Fl-ASPP2 n-src peptide 1089–1097 by non-labeled peptide: did not compete
[4]
  Binding of NFκB 303–332 to the n-src loop peptide: did not bind

## NFκB 21–50: unlabeled peptide derived from the ASPP2-binding sites in NFκB (VEIIEQPKQRGMRFRYKCEGRSAGSIPGER)
[3]
  Displacement of p53CD from its complex with Fl-ASPP2 n-src peptide 1089–1097 by non-labeled peptide: did not compete

## REDEDEIEW [ASPP2 1089–1097, nine-residue peptide derived from ASPP2 n-src loop (residues 1089–1097), also termed CDB3]
[5]
  Specific DNA binding activity of p53CD mutant I195T: restored the specific DNA binding activity
[6]
  Unfolding of p53CD: slowed down the unfolding
[7]
  Structural effects of mutation in p53 R249S: rescued the structural effects of mutation
[8]
  Sensitization to apoptosis induced by γ-irradiation: sensitize
[9]
  Conformation of R175H and R273H mutant p53 in cells: restored the wild-type conformation
[10]
  Sensitization to apoptosis induced by γ-irradiation: not

## RRYRRDFAEMSSQLHLTP [Bcl-2 103–120]
[11]
  Displacement of Fl-NFκB 303–332 from its complex with ASPP2 Ank-SH3: did not displace; also recorded: did not compete
[12]
  Displacement of Fl-ASPP2 722–737 from its complex with ASPP2 Ank-SH3: did not displace; also recorded: did not compete
[3]
  Displacement of p53CD from its complex with Fl-ASPP2 n-src peptide 1089–1097 by non-labeled peptide: did not compete

## YDNREIVMKYIHYKLSQR [Bcl-2 7–24, Bcl2 BH4 derived peptide, residues 7–24]
[11]
  Displacement of Fl-NFκB 303–332 from its complex with ASPP2 Ank-SH3: did not displace; also recorded: did not compete
[12]
  Displacement of Fl-ASPP2 722–737 from its complex with ASPP2 Ank-SH3: did not displace; also recorded: did not compete
[3]
  Displacement of p53CD from its complex with Fl-ASPP2 n-src peptide 1089–1097 by non-labeled peptide: did not compete

## p53CD: recombinant p53 DNA-binding core domain, residues 94–312, expressed in E. coli
[11]
  Displacement of Fl-NFκB 303–332 from its complex with ASPP2 Ank-SH3: displaced
[12]
  Displacement of Fl-ASPP2 722–737 from its complex with ASPP2 Ank-SH3: displaced
[13]
  Anisotropy change on adding p53CD to pre-formed complex of ASPP2 Pro peptide and Fl-ASPP2 n-src peptide: the final anisotropy level increased

B1: Fl-NFκB 303–332 (fluorescein-labelled NFκB p65 peptide) (peptide)
peptide: fluorescein-KRTYETFKSIMKKSPFSGPTDPRPPPRRIA
notes: also called NFκB peptide; source: synthetic peptide
[14]
  Kd: 470 ± 20 nM
[15]
  Kd: 130 ± 10 nM

B2: ASPP2 722–737 (ASPP2 Pro peptide, non-labelled) (peptide)
peptide: WRKKLSNAPRPLKKRSS
notes: Trp added at the N terminus of the peptide for UV spectroscopy; A natural stretch with one added N-terminal Trp; source: synthetic peptide
[16]
  Kd: 500 ± 30 nM

B3: Fl-ASPP2 722–737 (fluorescein-labelled ASPP2 Pro peptide) (peptide)
peptide: fluorescein-WRKKLSNAPRPLKKRSS
notes: Trp added at the N terminus of the peptide for UV spectroscopy; also called Fl-ASPP2 Pro peptide; source: synthetic peptide
[15]
  Kd: 680 nM and 820 nM
